Test: Antagonist activity at P2Y12 receptor in human platelet rich plasma assessed as inhibition of ADP-induced platelet aggregation by light transmission aggregometry

Row | SMILES | IC50 [nM]
1 | CCCCCOC(=O)N1CCN(C(=O)[C@H](CCC(=O)O)NC(=O)c2nc(-c3ccccc3)cc(N3CCN(C(=O)N(C)C)CC3)n2)CC1 [(S)-4-(4-(4-(dimethylcarbamoyl)piperazin-1-yl)-6-phenylpyrimidine-2-carboxamido)-5-oxo-5-(4-(pentyloxycarbonyl)piperazin-1-yl)pentanoic acid] | > 10000
2 | CCCCCOC(=O)N1CCN(C(=O)[C@H](CCC(=O)O)NC(=O)c2nc(-c3ccccc3)cc(N3CCC(COC)CC3)n2)CC1 [(S)-4-(4-(4-(methoxymethyl)piperidin-1-yl)-6-phenylpyrimidine-2-carboxamido)-5-oxo-5-(4-(pentyloxycarbonyl)piperazin-1-yl)pentanoic acid] | 6800
3 | CCCCCOC(=O)N1CCN(C(=O)[C@H](CCC(=O)O)NC(=O)c2nc(-c3ccccc3)cc(N3CCN(C(C)=O)CC3)n2)CC1 [(S)-4-(4-(4-acetylpiperazin-1-yl)-6-phenylpyrimidine-2-carboxamido)-5-oxo-5-(4-(pentyloxycarbonyl)piperazin-1-yl)pentanoic acid] | 6500
4 | CCCCCOC(=O)N1CCN(C(=O)[C@H](CCC(=O)O)NC(=O)c2nc(-c3ccccc3)cc(N3CCC(OC)CC3)n2)CC1 [(S)-4-(4-(4-methoxypiperidin-1-yl)-6-phenylpyrimidine-2-carboxamido)-5-oxo-5-(4-(pentyloxycarbonyl)piperazin-1-yl)pentanoic acid] | > 10000
5 | CCCCCOC(=O)N1CCN(C(=O)[C@H](CCC(=O)O)NC(=O)c2nc(-c3ccccc3)cc(N3CCN(C)CC3)n2)CC1 [(S)-4-(4-(4-methylpiperazin-1-yl)-6-phenylpyrimidine-2-carboxamido)-5-oxo-5-(4-(pentyloxycarbonyl)piperazin-1-yl)pentanoic acid] | 8100
6 | CCCCCOC(=O)N1CCN(C(=O)[C@H](CCC(=O)O)NC(=O)c2nc(OCC3CCN(C)CC3)cc(-c3ccccc3)n2)CC1 [(S)-4-(4-((1-methylpiperidin-4-yl)methoxy)-6-phenylpyrimidine-2-carboxamido)-5-oxo-5-(4-(pentyloxycarbonyl)piperazin-1-yl)pentanoic acid] | 3800
7 | CCCCCOC(=O)N1CCN(C(=O)[C@H](CCC(=O)O)NC(=O)c2nc(-c3ccccc3)cc(N3CCOCC3)n2)CC1 [(S)-4-(4-morpholino-6-phenylpyrimidine-2-carboxamido)-5-oxo-5-(4-(pentyloxycarbonyl)piperazin-1-yl)pentanoic acid] | > 10000
8 | CCCCCOC(=O)N1CCN(C(=O)[C@H](CCC(=O)O)NC(=O)c2cc(NC3CCN(C(C)C)CC3)nc(-c3ccccc3)n2)CC1 [(S)-4-(6-(1-isopropylpiperidin-4-ylamino)-2-phenylpyrimidine-4-carboxamido)-5-oxo-5-(4-(pentyloxycarbonyl)piperazin-1-yl)pentanoic acid] | 3700
9 | CCCCCOC(=O)N1CCN(C(=O)[C@H](CCC(=O)O)NC(=O)c2cc(OCCN(CC)CC)nc(-c3ccccc3)n2)CC1 [(S)-4-(6-(2-(diethylamino)ethoxy)-2-phenylpyrimidine-4-carboxamido)-5-oxo-5-(4-(pentyloxycarbonyl)piperazin-1-yl)pentanoic acid] | 15000
10 | CCCCCOC(=O)N1CCN(C(=O)[C@H](CCC(=O)O)NC(=O)c2cc(SCCO)nc(-c3ccccc3)n2)CC1 [(S)-4-(6-(2-hydroxyethylthio)-2-phenylpyrimidine-4-carboxamido)-5-oxo-5-(4-(pentyloxycarbonyl)piperazin-1-yl)pentanoic acid] | > 10000
11 | CCCCCOC(=O)N1CCN(C(=O)[C@H](CCC(=O)O)NC(=O)c2cc(OCCOC)nc(-c3ccccc3)n2)CC1 [(S)-4-(6-(2-methoxyethoxy)-2-phenylpyrimidine-4-carboxamido)-5-oxo-5-(4-(pentyloxycarbonyl)piperazin-1-yl)pentanoic acid] | 7900
12 | CCCCCOC(=O)N1CCN(C(=O)[C@H](CCC(=O)O)NC(=O)c2cc(N3CC(OCC)C3)nc(-c3ccccc3)n2)CC1 [(S)-4-(6-(3-ethoxyazetidin-1-yl)-2-phenylpyrimidine-4-carboxamido)-5-oxo-5-(4-(pentyloxycarbonyl)piperazin-1-yl)pentanoic acid] | 4100
13 | CCCCCOC(=O)N1CCN(C(=O)[C@H](CCC(=O)O)NC(=O)c2cc(OCCCN3CCOCC3)nc(-c3ccccc3)n2)CC1 [(S)-4-(6-(3-morpholinopropoxy)-2-phenylpyrimidine-4-carboxamido)-5-oxo-5-(4-(pentyloxycarbonyl)piperazin-1-yl)pentanoic acid] | 8700

Results, then the compound that gave them:

Row | IC50 [nM] | SMILES
14 | 1300 | CCCCCOC(=O)N1CCN(C(=O)[C@H](CCC(=O)O)NC(=O)c2nc(-c3ccccc3)cc(N3CCC(C(=O)N(CC)CC)CC3)n2)CC1 [(S)-4-(4-(4-(diethylcarbamoyl)piperidin-1-yl)-6-phenylpyrimidine-2-carboxamido)-5-oxo-5-(4-(pentyloxycarbonyl)piperazin-1-yl)pentanoic acid]
15 | 2700 | CCCCCOC(=O)N1CCN(C(=O)[C@H](CCC(=O)O)NC(=O)c2nc(-c3ccccc3)cc(N3CCC(N)CC3)n2)CC1 [(S)-4-(4-(4-aminopiperidin-1-yl)-6-phenylpyrimidine-2-carboxamido)-5-oxo-5-(4-(pentyloxycarbonyl)piperazin-1-yl)pentanoic acid]
16 | 3600 | CCCCCOC(=O)N1CCN(C(=O)[C@H](CCC(=O)O)NC(=O)c2nc(-c3ccccc3)cc(N3CCN(C(N)=O)CC3)n2)CC1 [(S)-4-(4-(4-carbamoylpiperazin-1-yl)-6-phenylpyrimidine-2-carboxamido)-5-oxo-5-(4-(pentyloxycarbonyl)piperazin-1-yl)pentanoic acid]
17 | 2300 | CCCCCOC(=O)N1CCN(C(=O)[C@H](CCC(=O)O)NC(=O)c2nc(-c3ccccc3)cc(N3CCC(C(N)=O)CC3)n2)CC1 [(S)-4-(4-(4-carbamoylpiperidin-1-yl)-6-phenylpyrimidine-2-carboxamido)-5-oxo-5-(4-(pentyloxycarbonyl)piperazin-1-yl)pentanoic acid]
18 | 3000 | CCCCCOC(=O)N1CCN(C(=O)[C@H](CCC(=O)O)NC(=O)c2nc(-c3ccccc3)cc(N3CCC(N4CCOCC4)CC3)n2)CC1 [(S)-4-(4-(4-morpholinopiperidin-1-yl)-6-phenylpyrimidine-2-carboxamido)-5-oxo-5-(4-(pentyloxycarbonyl)piperazin-1-yl)pentanoic acid]
19 | 2600 | CCCCCOC(=O)N1CCN(C(=O)[C@H](CCC(=O)O)NC(=O)c2cc(NCCOC)nc(-c3ccccc3)n2)CC1 [(S)-4-(6-(2-methoxyethylamino)-2-phenylpyrimidine-4-carboxamido)-5-oxo-5-(4-(pentyloxycarbonyl)piperazin-1-yl)pentanoic acid]
20 | 2600 | CCCCCOC(=O)N1CCN(C(=O)[C@H](CCC(=O)O)NC(=O)c2cc(NCCCN(C)C)nc(-c3ccccc3)n2)CC1 [(S)-4-(6-(3-(dimethylamino)propylamino)-2-phenylpyrimidine-4-carboxamido)-5-oxo-5-(4-(pentyloxycarbonyl)piperazin-1-yl)pentanoic acid]
21 | 3500 | CCCCCOC(=O)N1CCN(C(=O)[C@H](CCC(=O)O)NC(=O)c2cc(N3CC(O)C3)nc(-c3ccccc3)n2)CC1 [(S)-4-(6-(3-hydroxyazetidin-1-yl)-2-phenylpyrimidine-4-carboxamido)-5-oxo-5-(4-(pentyloxycarbonyl)piperazin-1-yl)pentanoic acid]
22 | 1000 | CCCCCOC(=O)N1CCN(C(=O)[C@H](CCC(=O)O)NC(=O)c2cc(N3CCC(CC(=O)N4CCC4)CC3)nc(-c3ccccc3)n2)CC1 [(S)-4-(6-(4-(2-(azetidin-1-yl)-2-oxoethyl)piperidin-1-yl)-2-phenylpyrimidine-4-carboxamido)-5-oxo-5-(4-(pentyloxycarbonyl)piperazin-1-yl)pentanoic acid]
23 | 2600 | CCCCCOC(=O)N1CCN(C(=O)[C@H](CCC(=O)O)NC(=O)c2cc(N3CCC(CC(=O)N(CC)CC)CC3)nc(-c3ccccc3)n2)CC1 [(S)-4-(6-(4-(2-(diethylamino)-2-oxoethyl)piperidin-1-yl)-2-phenylpyrimidine-4-carboxamido)-5-oxo-5-(4-(pentyloxycarbonyl)piperazin-1-yl)pentanoic acid]
24 | 530 | CCCCCOC(=O)N1CCN(C(=O)[C@H](CCC(=O)O)NC(=O)c2cc(N3CCN(CC(=O)N(C)C)CC3)nc(-c3ccccc3)n2)CC1 [(S)-4-(6-(4-(2-(dimethylamino)-2-oxoethyl)piperazin-1-yl)-2-phenylpyrimidine-4-carboxamido)-5-oxo-5-(4-(pentyloxycarbonyl)piperazin-1-yl)pentanoic acid]
25 | 400 | CCCCCOC(=O)N1CCN(C(=O)[C@H](CCC(=O)O)NC(=O)c2cc(N3CCC(CCN(C)C)CC3)nc(-c3ccccc3)n2)CC1 [(S)-4-(6-(4-(2-(dimethylamino)ethyl)piperidin-1-yl)-2-phenylpyrimidine-4-carboxamido)-5-oxo-5-(4-(pentyloxycarbonyl)piperazin-1-yl)pentanoic acid]
26 | 1600 | CCCCCOC(=O)N1CCN(C(=O)[C@H](CCC(=O)O)NC(=O)c2cc(N3CCC(CC(=O)NCC)CC3)nc(-c3ccccc3)n2)CC1 [(S)-4-(6-(4-(2-(ethylamino)-2-oxoethyl)piperidin-1-yl)-2-phenylpyrimidine-4-carboxamido)-5-oxo-5-(4-(pentyloxycarbonyl)piperazin-1-yl)pentanoic acid]
27 | 1100 | CCCCCOC(=O)N1CCN(C(=O)[C@H](CCC(=O)O)NC(=O)c2cc(N3CCC(CC(=O)NC)CC3)nc(-c3ccccc3)n2)CC1 [(S)-4-(6-(4-(2-(methylamino)-2-oxoethyl)piperidin-1-yl)-2-phenylpyrimidine-4-carboxamido)-5-oxo-5-(4-(pentyloxycarbonyl)piperazin-1-yl)pentanoic acid]
28 | 620 | CCCCCOC(=O)N1CCN(C(=O)[C@H](CCC(=O)O)NC(=O)c2cc(N3CCC(CCN)CC3)nc(-c3ccccc3)n2)CC1 [(S)-4-(6-(4-(2-aminoethyl)piperidin-1-yl)-2-phenylpyrimidine-4-carboxamido)-5-oxo-5-(4-(pentyloxycarbonyl)piperazin-1-yl)pentanoic acid]
29 | 1300 | CCCCCOC(=O)N1CCN(C(=O)[C@H](CCC(=O)O)NC(=O)c2cc(N3CCC(OCCO)CC3)nc(-c3ccccc3)n2)CC1 [(S)-4-(6-(4-(2-hydroxyethoxy)piperidin-1-yl)-2-phenylpyrimidine-4-carboxamido)-5-oxo-5-(4-(pentyloxycarbonyl)piperazin-1-yl)pentanoic acid]

Source: BindingDB's records for doi:10.1016/j.bmcl.2009.09.017 (Pfizer, 2009)
